These results are taken from patent US20080032340A1, “Peptide motifs for binding avidin or neutravidin” (University of Arizona, priority 2006, published 2008).

One experiment concerns the target T1, streptavidin (Streptomyces avidinii, UniProt P22629).
T1 construct: purchased Pierce
The experiment is described as follows: HABA-competitive binding determination, streptavidin-HABA complex. The protocol: (§1) After 60 minutes, the absorbance of the complex was monitored at 500 nm. To calculate the IC50s of the selected peptides, the average of three separate trials were fitted to the Hill equation, [formula] where [L] is the total ligand concentration, [L]F is free ligand concentration, [L]B is bound ligand concentration and nH is the Hill coefficient (Hill, The possible effects of the aggregation of the molecules of haemoglobin on its dissociation curves. J Physiol 1910; 40:4-8). […] Best fit equations were calculated using KaleidaGraph (Synergy Software).

The target of experiment [1] is T2, avidin (Gallus gallus, UniProt P02701). The experiment is described as follows: HABA-competitive binding determination, avidin-HABA complex. Particulars: linear (uncyclized) peptides; read-out: dissociation constant, avidin, linear peptides. Also on record: purchased Pierce; species or system chicken. The method, then:
as §1

The target of experiment [2] is T3, NeutrAvidin (Gallus gallus, UniProt P02701).
T3 construct: purchased Pierce
The experiment is described as follows: HABA-competitive binding determination, HABA-NeutrAvidin complex. Particulars: linear (uncyclized) peptides; read-out: dissociation constant, Neutravidin, linear peptides. The protocol:
as §1

For experiment [3], the target named is T2, avidin. The conditions noted are these: pH of 7, literature value; read-out: Kd HABA-avidin; cited from earlier work.
In experiment [4] the target is T3, NeutrAvidin. The experiment is described as follows: HABA saturation of NeutrAvidin. In kind it is binding. The conditions noted are these: calculated value, supplementary material; read-out: dissociation constant of the HABA-NeutrAvidin complex. The method, then: as §1
The target in experiment [5] is T3, NeutrAvidin. The experiment is described as follows: Phage-displayed cyclic peptide selection against NeutrAvidin (clone sequencing). The format is binding. The method, then: XL1-Blue E. coli containing the phagemid library vector were grown from glycerol stocks in 5 mL of 2×YT media with glucose and ampicillin selection at 37° C. Titered M13KO7 helper phage (5×10^9 pfu) was added when the culture reached an OD600 of 0.8 and was incubated for 1 hour. The culture was then pelleted via centrifugation, the cells were resuspended in 2×YT with ampicillin and kanamycin, and allowed to grow overnight. After 10 hours of incubation, the culture was again pelleted by centrifugation and the supernatant was filtered through a 0.45 μm sterile filter to remove trace E. coli. The phage was isolated from the supernatant by PEG (polyethylene glycol) precipitation. 1 mL of 20% PEG in 2.5 M NaCl was added to the 5 mL of filtered media. The resulting precipitate was isolated by centrifugation at 18,000 rcf. The phage pellet was resuspended in 5 mL of Tris Buffer A (20 mM Tris-HCl, 150 mM NaCl, and 0.05% Tween 20 at pH=7.4). The phage was then re-precipitated with 1 mL PEG/NaCl, isolated via centrifugation, and resuspended in 1 mL of Tris Buffer A.
100 μL of the phage solution was then exposed to a well of a NeutrAvidin coated polystyrene plate (Pierce) that had been previously rinsed with Tris Buffer A. After 1 hour of incubation, the phage solution was discarded and the well was washed six times for 10 minutes each with 200 μL of Tris Buffer A. Bound phage was eluted with 200 μL of 0.2 M glycine (pH=2.0) by incubation for 10 minutes, followed by neutralization with 40 μL of 2 M Tris base. The input phage and eluted phage were then used to infect two 5 mL tetracycline-selected cultures of XL1 Blue E. coli (OD600=0.8). After 1 hour, the cells were pelleted and resuspended in 5 mL of 2×YT with ampicillin and glucose. […]
Phage display selection and synthesis of NeutrAvidin binding peptides. […] The library was expressed as a fusion to the gene III protein of M13 filamentous bacteriophage, C-terminal to the periplasmic signaling sequence and N-terminal to a peptide linker and the rest of the gene III protein (see supplementary material). […]

Read-outs that look alike come from different tables or passages of the source. Where a SMILES comes first, the peptide text is derived from it. Bridges are numbered along the chain shown (N, C = ends).

T1 sequence (P22629 25-183): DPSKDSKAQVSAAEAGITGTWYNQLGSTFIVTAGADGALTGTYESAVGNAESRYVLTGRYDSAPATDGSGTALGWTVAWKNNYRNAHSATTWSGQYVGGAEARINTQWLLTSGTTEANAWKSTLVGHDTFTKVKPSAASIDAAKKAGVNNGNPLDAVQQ
T3 sequence (P02701 25-152): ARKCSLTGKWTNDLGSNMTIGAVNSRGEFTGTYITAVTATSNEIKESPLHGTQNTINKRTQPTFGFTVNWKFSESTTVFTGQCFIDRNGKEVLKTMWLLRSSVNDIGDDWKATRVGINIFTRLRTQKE
T2 sequence (P02701 25-152): as above

In the case of `CC(C)C[C@@H]1NC(=O)[C@H](CC(=O)O)NC(=O)[C@@H](N)CSSC[C@@H](C(=O)NCC(N)=O)NC(=O)[C@H](Cc2c[nH]c3ccccc23)NC(=O)[C@@H]2CCCN2C(=O)[C@H](CO)NC(=O)[C@H](C)NC1=O` [DLASPW] (H-CDLASPWCG-NH2; disulfide 1-8; N-terminus assumed), the Kd on streptavidin was above 5000 µM.

For `C[C@@H]1NC(=O)[C@H](CCCNC(=N)N)NC(=O)[C@H](CC(=O)O)NC(=O)[C@@H](N)CSSC[C@@H](C(=O)NCC(N)=O)NC(=O)[C@H](Cc2ccc(O)cc2)NC(=O)[C@@H]2CCCN2C(=O)[C@H](CO)NC1=O` [DRASPY] (H-CDRASPYCG-NH2; disulfide 1-8), the Kd on avidin [1] was below 500 µM; on NeutrAvidin [2] it was below 500 µM; on streptavidin, above 5000 µM.

On to `C[C@@H]1NC(=O)[C@H](CCCNC(=N)N)NC(=O)[C@H](CC(=O)O)NC(=O)[C@@H](N)CSSC[C@@H](C(=O)NCC(N)=O)NC(=O)[C@H](Cc2ccc(O)cc2)NC(=O)[C@@H]2CCCN2C(=O)[C@H]([C@@H](C)O)NC1=O` [DRATPY] (H-CDRATPYCG-NH2; disulfide 1-8), for which the Kd on avidin [1] is below 500 µM; at NeutrAvidin [2], below 500 µM; on streptavidin it was above 5000 µM.

`O=C(O)c1ccccc1N=Nc1ccc(O)cc1` [HABA, 4′-hydroxyazobenzene-2-carboxylic acid]: the Kd on avidin [3] is 7 µM; at NeutrAvidin [4], 15 µM.

On to CDRASPWC [not synthesized], for which, in the experiment with NeutrAvidin [5] (round 3, 15 clones sequenced), the “% of clones, Round 3” value came out at 20%. In the experiment with NeutrAvidin [5] (round 4, 26 clones sequenced), the “% of clones, Round 4” value was 8%. In addition, the “% of clones, Round 5” value with NeutrAvidin [5] (round 5, 40 clones sequenced) is listed as 5%.
